Laboratory results taken from patent US20260174744A1, “COMPOUNDS, COMPOSITIONS, AND METHODS OF TREATING RNA VIRAL INFECTIONS” (priority 2024, published 2026).

Columns and labels:
MRC-5 cells = experiment: Toxicity XTT in MRC-5 (229E cytoprotection assay); conditions: read-out: CoV229E - TC50; MRC-5; XTT; 6 days
Huh-luc/neo-ET cells = experiment: XTT cell viability assay, Huh-luc/neo-ET; assay type: cell-based; conditions: 72 hours, read-out: HCV 1b - TC50
Method: (§1) Twenty-four hours after seeding the cells, the cell culture supernatant was removed from each well and replaced with 175 μL fresh complete medium minus G418. Test compounds were evaluated at a high-test concentration of 10 μM and five serial half-logarithmic dilutions in three biological replicates. In three biological replicates, Sofosbuvir was evaluated in parallel at a high-test concentration of 1 μM and five serial half-logarithmic dilutions. Compounds were first serially diluted in DMSO to 400× of each final in-well concentration. An intermediate 8× solution was prepared in a complete medium and then added to the cells in a volume of 25 μL per well. A complete medium containing an equal percentage of DMSO (v/v) was added to vehicle-treated control cells. The final DMSO concentration was 0.25% (v/v) for all samples. The cells were incubated for an additional 72 hours at 37° C./5% CO2, then HCV replication was measured by luciferase activity and cell viability was assessed in parallel using an XTT colorimetric assay.
(§2) Huh-luc/neo-ET cell viability was measured at 72 hours after treatment using the tetrazolium dye XTT (2,3-bis(2-methoxy-4-nitro-5-sulfophenyl)-5[(phenylamino)carbonyl]-2H-tetrazolium hydroxide). Mitochondrial enzymes of metabolically active cells metabolize XTT-tetrazolium to a soluble formazan product. XTT solution was prepared fresh at 1 mg/mL in DMEM. Phenazine methosulfate (PMS) solution was prepared at 0.15 mg/mL in PBS and stored in the dark at −20° C. An XTT/PMS stock was prepared immediately before use by adding 40 μL of PMS per ml of XTT solution. Fifty microliters (50 μL) XTT/PMS were added per well, and the cells were incubated for 4 hours at 37° C. The cell culture plates were then sealed with adhesive plate sealers and shaken gently or inverted several times to mix the soluble formazan product. The formazan product was measured spectrophotometrically by absorbance at 450/650 nm on a Vmax plate reader (Molecular Devices). The raw data in Softmax Pro 5.4.2 software was imported into Microsoft Excel for further analysis. Data are presented as absorbance values (450/650 nm) or the percentage of viable cells relative to vehicle-treated control (mean+1−standard deviation, n=3 biological replicates from one independent experiment).

HCV 1b = experiment: microbe, parasite or virus in culture; assay type: cell-based; conditions: for HCV 1b - percent effect: @ 10 μM
[1] = system: MCF7 wild-type cell lines; experiment: MCF7 growth inhibition assay (Cell Titre Glo 2.0); assay type: cell-based; conditions: Homo sapiens, 120 hours, read-out: MCF-7 IC50
Method: The growth inhibition properties of inhibitors on MCF7 wild-type cell lines were evaluated using the Cell Titre Glo 2.0 cell viability reagent. The assay utilized 384-well black clear bottom plates with 20 μl of MCF7 wild-type cell suspension mixed with reference/test compounds and 20 μl of Cell Titre Glo 2.0 reagent. Cells were seeded at a density of 1000 cells/well in DMEM High Glucose culture media+10% Fetal Bovine Serum (FBS). Staurosporine and Camptothecin served as positive controls for confirming cytotoxicity at a concentration of 30 μM, and vehicle control of 1% DMSO was used to standardize conditions across all test points. The assay and culture media both contained 1% DMSO. […] The incubation period for the assay was set at 120 hours, after which growth inhibition was assessed. Using a multi-mode reader, the assay readout was based on luminescence measured in Relative Light Units (RLUs). The viability luminescence signal was monitored continually from the same wells over an extended period, allowing for detailed analysis of cell viability. […]
Cells were maintained and seeded in 384 […] plates, maintaining 1000 cells/well. […] This was followed by the addition of CTG reagent as per the kit's instruction protocol for 30 minutes and RLU data to be recorded. Post plate read data to be analyzed using GraphPad Prism for software IC50 value generation. […]

[2] = Toxicity XTT in MRC-5 (229E cytoprotection assay); conditions: human
[3] = XTT cell viability assay, Huh-luc/neo-ET; assay type: cell-based; conditions: human, Huh-luc/neo-ET cells, read-out: HCV 1b - TC50
Method: as §1, §2

CoV229E = experiment: Anti-Coronavirus 229E cytoprotection assay, MRC-5; assay type: cell-based; conditions: Human coronavirus 229E, MRC5, 6 days, XTT
Norovirus Norwalk Virus = experiment: Norwalk virus CPE assay, HG23 (Method 6); assay type: cell-based
Source text: The antiviral assays were cell line based and consisted in transfecting each of the viruses tested in a compatible cell line. Upon infection and after drug treatment, viral survival and cell toxicity were reported from the readout of three different assays: cytopathic effect (CPE), viral yield reduction (VYR), or immunofluorescence (IF). A breakdown of the results obtained can be found in Table 3 in which EC50 values have been converted to account for variations in FBS concentrations across assays.
Compounds were tested in an assay medium containing 2% fetal bovine serum (FBS). Test compounds were added to cells prior to infection with virus at a multiplicity of infection (MOI) sufficient to induce visible cytopathic effect (CPE). […] Additionally, the EC90 was defined as the concentration required to achieve a 1 log10 reduction in viral titer. Dose-response curves depicting viral CPE (red line) and compound cytotoxicity (purple line) were generated to support these analyses.

[4] = Protein binding in FBS, rapid equilibrium dialysis (RED); conditions: 10% FBS (text/footnote)

Structure (SMILES) | CC50 (MRC-5 cells) [µM] | CC50 (Huh-luc/neo-ET cells) [µM] | further results
Nc1cccc2c1nc(-c1ccc(F)cc1)n2Cc1ccc(OCCC2CCCCC2)cc1 [MCAA-11] | > 5 | 5.82 | 
Cc1c(-c2ccc(O)cc2)n(Cc2ccc(OCCC3CCCCC3)cc2)c2ccc(O)cc12 [MCAA-04] | 2.7 | > 10 | 
CC(C)OC(=O)[C@H](C)N[P@](=O)(OC[C@H]1O[C@@H](n2ccc(=O)[nH]c2=O)[C@](C)(F)[C@@H]1O)Oc1ccccc1 [Sofosbuvir, reference compound] |  | > 1 | 
Fc1ccc(-c2cc3sccc3n2Cc2ccc(OCCC3CCCCC3)cc2)cc1 [MCAA-07] | > 5 | > 10 | HCV 1b - percent effect (HCV 1b): 30% @ 10 μM
O=[N+]([O-])c1cccc2c1nc(-c1ccc(F)cc1)n2Cc1ccc(OCCN2CCCCC2)cc1 [MCAA-13] | > 5 | > 10 | 
COc1ccc(-c2c(Cc3ccc(OCCC4CCCCC4)cc3)c3ccc(OC)cc3n2C)cc1 [MCAA-05] | > 5 | > 10 | 
O=[N+]([O-])c1cccc2nc(-c3ccc(F)cc3)n(Cc3ccc(OCCN4CCCCC4)cc3)c12 [MCAA-12] | > 5 | > 10 | 
O=C(O)c1ccc(-c2c(CC3CCCC3)c3ccc(F)cc3n2Cc2ccc(OCCC3CCCCC3)cc2)cc1 [MCAA-03] | 2.47 | > 10 | 
O=[N+]([O-])c1cccc2nc(-c3ccc(F)cc3)n(Cc3ccc(OCCC4CCCCC4)cc3)c12 [MCAA-14] | > 5 | > 10 | HCV 1b - percent effect (HCV 1b): 34% @ 10 μM
COc1ccc(-c2c(Cc3ccc(OCCN4CCCCC4)cc3)c3ccc(OC)cc3n2C)cc1 [MCAA-01] |  |  | EC50 (HCV 1b; Hepatitis C virus, Huh-luc/neo-ET replicon, 72 hours, luciferase): 3.61 µM; IC50 [1]: > 10 µM; CC50 at 6 days [2]: > 5 µM; CC50 at 72 h [3]: > 10 µM; EC50 (CoV229E): 1.88 µM
CCC(CC)COC(=O)[C@H](C)N[P@](=O)(OC[C@H]1O[C@@](C#N)(c2ccc3c(N)ncnn23)[C@H](O)[C@@H]1O)Oc1ccccc1 [Remdesivir, reference compound] | > 1 |  | 
O=C(O)c1ccc(-c2c(CC3CCCC3)c3ccc(F)cc3n2Cc2ccc(OCCN3CCCCC3)cc2)cc1 [MCAA-02] | > 5 | > 10 | 
Nc1cccc2c1nc(-c1ccc(F)cc1)n2Cc1ccc(OCCN2CCCCC2)cc1 [MCAA-10] | > 5 | > 10 | 
Fc1ccc(-c2cc3sccc3n2Cc2ccc(OCCN3CCCCC3)cc2)cc1 [MCAA-06] | 1.53 | > 10 | 
Nc1cccc2nc(-c3ccc(F)cc3)n(Cc3ccc(OCCN4CCCCC4)cc3)c12 [MCAA-08] | > 5 | > 10 | 
O=[N+]([O-])c1cccc2c1nc(-c1ccc(F)cc1)n2Cc1ccc(OCCC2CCCCC2)cc1 [MCAA-15] | > 5 | > 10 | HCV 1b - percent effect (HCV 1b): 38% @ 10 μM
Nc1cccc2nc(-c3ccc(F)cc3)n(Cc3ccc(OCCC4CCCCC4)cc3)c12 [MCAA-09] | > 5 | > 10 | 
Cc1c(-c2ccc(O)cc2)n(Cc2ccc(OCCN3CCCCC3)cc2)c2ccc(O)cc12 [Pipendoxifene] | > 1 |  | percent effect printed in EC50 column (Norovirus Norwalk Virus; 2% FBS, @ 5 μM): 31% @; percent effect printed in Corrected EC50 column (Norovirus Norwalk Virus; @ 1.25 μM (concentration corrected for 2% FBS)): 31% @ 1.25; unbound fraction [4]: 5%
